Experimental data as given in publication PMC10589713 (Proceedings of the National Academy of Sciences of the …, 2023).
“And” between values parts separate entries of the source, which are not always exact repeats. Equal entries are not always repeated.

Legend:
rgDENV2 NS5-G605V = assay type: cell-based, dengue virus
MERS-CoV = experiment: microbe, parasite or virus in culture; assay type: cell-based; conditions: Middle East respiratory syndrome-related coronavirus, VeroE6/TMPRSS2
ZIKV = experiment: microbe, parasite or virus in culture; assay type: cell-based; conditions: Zika virus, BHK-21, 72 h
DENV2 AG-P10 = system: DENV2 AG-P10; design: species or system AG129 mice; conditions: mouse, in vivo
SFTSV = experiment: microbe, parasite or virus in culture; assay type: cell-based; conditions: Severe fever with thrombocytopenia syndrome virus, MDCK
DENV2 [1] = experiment: microbe, parasite or virus in culture; assay type: cell-based; conditions: Dengue virus, DENV2, BHK-21, 96 h
YFV = experiment: microbe, parasite or virus in culture; assay type: cell-based; conditions: Yellow fever virus, BHK-21, 72 h
JUNV = experiment: microbe, parasite or virus in culture; assay type: cell-based; conditions: Mammarenavirus juninense, HEK-293T
IAV H7N9 = experiment: microbe, parasite or virus in culture; assay type: cell-based; conditions: Influenza A virus, H7N9, MA104
CHIKV = experiment: microbe, parasite or virus in culture; assay type: cell-based; conditions: Chikungunya virus, BHK-21
LACV = experiment: organism not typed; assay type: cell-based; conditions: MDBK
IAV H5N1 = experiment: microbe, parasite or virus in culture; assay type: cell-based; conditions: Influenza A virus, H5N1, A549
[2] = mouse, in vivo
rgDENV2 Wild type = experiment: microbe, parasite or virus in culture; assay type: cell-based; conditions: Dengue virus, BHK-21, 96 h
RVFV = experiment: microbe, parasite or virus in culture; assay type: cell-based; conditions: Rift Valley fever virus, MDCK
LPHV = experiment: microbe, parasite or virus in culture; assay type: cell-based; conditions: Leopards Hill virus
LCMV = experiment: microbe, parasite or virus in culture; assay type: cell-based; conditions: Mammarenavirus choriomeningitidis
SARS-CoV-2 = experiment: microbe, parasite or virus in culture; assay type: cell-based; conditions: Severe acute respiratory syndrome coronavirus 2, VeroE6/TMPRSS2
DENV2 [3] = experiment: microbe, parasite or virus in culture; assay type: cell-based; conditions: Dengue virus, DENV2, Huh-7
ZIKV NS5 (RdRp) = ZIKV NS5 (RdRp) (Zika virus, UniProt A0A024B7W1); assay type: biochemical
Sequence of ZIKV NS5 (RdRp) (A0A024B7W1 2521-3423 limits assumed): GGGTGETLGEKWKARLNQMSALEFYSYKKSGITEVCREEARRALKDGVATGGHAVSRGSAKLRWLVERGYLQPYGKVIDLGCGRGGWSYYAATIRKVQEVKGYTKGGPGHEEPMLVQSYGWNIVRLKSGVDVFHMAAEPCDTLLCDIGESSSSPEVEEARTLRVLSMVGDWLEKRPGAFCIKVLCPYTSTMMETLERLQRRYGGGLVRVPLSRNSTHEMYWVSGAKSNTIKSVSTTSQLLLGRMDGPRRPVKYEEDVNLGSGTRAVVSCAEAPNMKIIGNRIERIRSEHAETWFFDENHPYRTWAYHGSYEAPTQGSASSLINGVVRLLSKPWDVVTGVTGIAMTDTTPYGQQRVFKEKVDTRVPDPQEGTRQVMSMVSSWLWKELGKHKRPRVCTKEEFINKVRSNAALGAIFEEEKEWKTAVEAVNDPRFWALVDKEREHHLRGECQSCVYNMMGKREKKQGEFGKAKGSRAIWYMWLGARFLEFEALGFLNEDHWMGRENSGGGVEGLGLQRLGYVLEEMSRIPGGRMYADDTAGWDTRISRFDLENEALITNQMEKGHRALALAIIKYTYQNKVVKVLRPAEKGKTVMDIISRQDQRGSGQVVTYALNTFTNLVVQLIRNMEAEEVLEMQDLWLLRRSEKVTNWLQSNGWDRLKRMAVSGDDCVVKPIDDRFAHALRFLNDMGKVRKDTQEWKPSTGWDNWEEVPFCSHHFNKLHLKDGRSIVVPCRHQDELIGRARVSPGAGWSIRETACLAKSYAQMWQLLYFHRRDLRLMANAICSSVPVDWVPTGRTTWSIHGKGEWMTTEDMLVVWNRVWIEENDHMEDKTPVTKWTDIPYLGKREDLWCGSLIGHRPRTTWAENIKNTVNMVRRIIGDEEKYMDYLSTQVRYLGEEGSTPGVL

Question: For `NC(=O)c1nc(F)c[nH]c1=O` [Favipiravir], which Fold change (rgDENV2 NS5-G605V) is on record?
Answer: 2.2

Question: For `NC(=O)c1ncn([C@@H]2O[C@H](CO)[C@@H](O)[C@H]2O)n1` [Ribavirin], which Fold change (rgDENV2 NS5-G605V) is on record?
Answer: 2.3

Question: For `O=c1ccn([C@@H]2O[C@H](CO)[C@@H](O)[C@H]2O)c(=S)[nH]1` [s2U, 2-thiouridine], which EC50 (MERS-CoV) is on record?
Answer: 2.3 µM

Question: And the EC50 (ZIKV)?
Answer: 3.8 ± 0.96 µM

Question: What about the median survival (DENV2 AG-P10) of the same compound?
Answer: 12.5 days and > 16 days and 12 days and 13 days

Question: And the EC50 (SFTSV)?
Answer: > 100 µM

Question: What about the EC50 (rgDENV2 NS5-G605V) of the same compound?
Answer: 5.1 ± 0.69 µM

Question: And the EC50 (DENV2 [1])?
Answer: 1.5 ± 0.1 µM

Question: And the EC50 (YFV)?
Answer: 3.2 ± 1.4 µM

Question: And the EC50 (JUNV)?
Answer: > 100 µM

Question: And the “mutagenicity, HPRT (in vitro gene mutation test)” value (V79 cells)?
Answer: does not have sufficient ability to introduce mutations

Question: And the EC50 (IAV H7N9)?
Answer: > 100 µM

Question: And the EC50 (CHIKV)?
Answer: 3.8 ± 0.12 µM

Question: What about the EC50 (LACV) of the same compound?
Answer: > 100 µM

Question: What about the EC50 (IAV H5N1) of the same compound?
Answer: > 100 µM

Question: What about the body weight change [2] of the same compound?
Answer: no BW loss

Question: And the EC50 (rgDENV2 Wild type)?
Answer: 0.86 ± 0.12 µM

Question: What about the EC50 (RVFV) of the same compound?
Answer: > 100 µM

Question: And the EC50 (LPHV)?
Answer: > 100 µM

Question: What about the EC50 (LCMV) of the same compound?
Answer: > 100 µM

Question: What about the EC50 (SARS-CoV-2) of the same compound?
Answer: 2.3 ± 0.43 µM

Question: And the EC50 (DENV2 [3])?
Answer: < 0.63 µM

Question: What about the EC90 (DENV2 [3]) of the same compound?
Answer: 3.4 µM

Question: For `O=c1ccn([C@@H]2O[C@H](COP(=O)(O)OP(=O)(O)OP(=O)(O)O)[C@@H](O)[C@H]2O)c(=S)[nH]1` [s2UTP, s2U 5′-triphosphate], which “RNA extension catalyzed by ZIKV RdRp” value (ZIKV NS5 (RdRp)) is on record?
Answer: inhibited RNA extension
